This is an account of results in patent publication EP2766361B1, “8-CARBAMOYL-2-(2,3-DISUBSTITUTED PYRID-6-YL)-1,2,3,4-TETRAHYDROISOQUINOLINE DERIVATIVES AS APOPTOSIS-INDUCING AGENTS FOR THE TREATMENT OF CANCER AND IMMUNE AND AUTOIMMUNE DISEASES” (priority 2011, dated 2013).

Each structure is given as a SMILES string. A value given as a limit tells only on which side of the number the result lay.

Data set [1] deals with mouse FL5.12 cells transfected with Bcl-xL. The data set is described as follows: FL5.12 cellular assay (cell viability, CellTiter-Glo). Type of data set: cell-based. The conditions noted are these: IL-3-depleted, 3% FBS assay media, 24 hours, read-out: FL5.12 Bcl-xL, -IL3, EC50. On the procedure:
Cell viability was assayed using the CellTiter-Glo assay (Promega Corp., Madison, WI) according to the manufacturer instructions. Individual determinations were the result of duplicate values. […] Table 2. In Vitro Data

The subject of data set [2] is Molt-4 human acute lymphoblastic leukemia cells. Kind of data set: Molt-4 cellular assay (cell viability, MTS). Type of data set: cell-based. As to conditions: 10% human serum, 48 hours. On the procedure:
Molt-4 (ATCC, Manassas, VA) human acute lymphoblastic leukemia cells were plated 50,000 cells per well in 96-well tissue culture plates in a total volume of 100 µL tissue culture medium supplemented with 10% human serum (Invitrogen, Carlsbad, CA) and treated with a 3-fold serial dilution of the compounds of interest from 5 µM to […]. Each concentration was tested in duplicate at least 3 separate times. The number of viable cells following 48 hours of compound treatment was determined using the CellTiter 96® Aqueous non-radioactive cell proliferation MTS assay according to manufacturer's recommendations (Promega Corp., Madison, WI).

A short description of data set [3]: Single dose pharmacokinetics, oral bioavailability. Type of data set: in vivo, Sprague-Dawley rats. As to conditions: for bioavailability: rat, in vivo, po.
Method: The single dose pharmacokinetics of select compounds were evaluated in Sprague-Dawley rats (Charles River) after a 5 mg/kg oral dose (n = 3) (10% DMSO in PEG-400) administered by gavage or by 5 mg/kg IV bolus dose (n = 3) (10% DMSO in PEG-400). Compound and the internal standard were separated from each other and coextracted contaminants on a 50 mm × 3 mm Keystone Betasil CN 5 µm column with an acetonitrile/0.1% trifluoroacetic acid mobile phase (50:50, by volume) at a flow rate of 0.7 mL/min. Analysis was performed on a Sciex API3000 biomolecular mass analyzer with a heated nebulizer interface. Compound and internal standard peak areas were determined using Sciex MacQuan software. The plasma drug concentration of each sample was calculated by least-squares linear regression analysis (nonweighted) of the peak area ratio (parent/internal standard) of the spiked plasma standards versus concentration. The plasma concentration data were submitted to multiexponential curve fitting using WinNonlin.3. The area under the plasma concentration-time curve was calculated using the linear trapezoidal rule for the plasma concentration-time profiles.
One way to calculate bioavailability of a drug or agent is by dividing the plasma concentration following an oral dose by the concentration following an intravenous dose.

Turning to `Cc1c(-c2ccc(N3CCc4cccc(C(=O)Nc5nc6ccccc6s5)c4C3)nc2C(=O)O)cnn1CC12CC3CC(CC(C3)C1)C2` [Example 3, 6-[8-(1,3-benzothiazol-2-ylcarbamoyl)-3,4-dihydroisoquinolin-2(1H)-yl]-3-[5-methyl-1-(tricyclo[3.3.1.1^3,7]dec-1-ylmethyl)-1H-pyrazol-4-yl]pyridine-2-carboxylic acid], the EC50 was less than 1 nM in data set [1] and 6 nM in data set [2]. The “F (%), dose” value in data set [3] (Rat p.o. dose, 5 mpk) is […].
On to `Cc1c(-c2ccc(N3CCc4cccc(C(=O)Nc5nc6ccccc6s5)c4C3)nc2C(=O)NS(=O)(=O)C2CC2)cnn1CC12CC3CC(CC(C3)C1)C2` [Example 18, N-(1,3-benzothiazol-2-yl)-2-{6-[(cyclopropylsulfonyl)carbamoyl]-5-[5-methyl-1-(tricyclo[3.3.1.1^3,7]dec-1-ylmethyl)-1H-pyrazol-4-yl]pyridin-2-yl}-1,2,3,4-tetrahydroisoquinoline-8-carboxamide], for which the EC50 in data set [1] stood at 1 nM; in data set [2], 24 nM. Moreover, the bioavailability in data set [3] (5 mg/kg) came to 31%.
Take `Cc1c(-c2ccc(N3CCc4cccc(C(=O)Nc5nc6ccccc6s5)c4C3)nc2C(=O)O)cnn1CC12CC3CC(CC(C3)O1)C2` [Example 59, 6-[8-(1,3-benzothiazol-2-ylcarbamoyl)-3,4-dihydroisoquinolin-2(1H)-yl]-3-[5-methyl-1-(2-oxatricyclo[3.3.1.1^3,7]dec-1-ylmethyl)-1H-pyrazol-4-yl]pyridine-2-carboxylic acid]: the results for the concentration for a half-maximal effect (EC50) in data set [1] and in data set [2] were 0.3 nM and 24 nM, respectively. For the same molecule, in data set [3] (1 mg/kg), the bioavailability is 31%.
